In the OPERA property sets (Mansouri et al. 2018):

conditions: not given

| Structure (SMILES) | melting point [°C] | boiling point [°C] | log10 vapour pressure (mmHg) | log10 Koc (L/kg) | log10 biodegradation half-life (days) | ready biodegradability | log10 Henry constant (atm·m³/mol) | log10 Koa |
| --- | --- | --- | --- | --- | --- | --- | --- | --- |
| O=S1(=O)CCN(CN2CCS(=O)(=O)NC2)CN1 | 156 | – | – | – | – | – | – | – |
| c1ccc(SSc2ccccc2)cc1 | 62 | 310 | -3.66 | – | – | – | – | – |
| CC[C@@](C)(O)C(=O)O | 74 | – | – | – | – | – | – | – |
| C=CI | – | 56 | – | – | – | – | – | – |
| CCCC(=O)OCc1ccccc1 | – | 239 | – | – | – | – | – | – |
| CC1(C)CON(Cc2ccccc2Cl)C1=O | 25 | 275 | -3.84 | 2.44 | – | – | – | – |
| Fc1ccc(-c2ccc(F)cc2)cc1 | 94.5 | 254 | – | – | – | – | – | – |
| Oc1ccc2c(c1)[C@@]13CCCC[C@H]1[C@@H](C2)N(CCc1ccccc1)CC3 | 244 | – | – | – | – | – | – | – |
| CCCCCCCCCCCCCCCCCCCCCCCCCC(=O)OC | 63.8 | – | – | – | – | – | – | – |
| O=C1CNC(=S)N1 | 230 | – | – | – | – | – | – | – |
| OC(c1ccccc1)(c1ccccc1)c1ccccc1 | 164 | 380 | – | – | – | – | – | – |
| O=[N+]([O-])c1cccc2c(Cl)cccc12 | 111 | – | – | – | – | – | – | – |
| CCOC(=O)c1cccnc1 | 8.5 | 224 | – | – | – | – | – | – |
| CC(=O)OC(C)C#N (centres undefined) | -75 | 172 | – | – | – | – | – | – |
| FC(F)(F)c1nc2ccccc2[nH]1 | 210 | – | – | – | – | – | – | – |
| C1CC2CC12 (centres undefined) | – | 45.5 | 2.56 | – | – | – | – | – |
| CC1CCCCC1C (centres undefined) | – | 126 | 1.2 | – | 1.26 | – | – | – |
| CC(C)(C)[C@@H](O)[C@H](Cc1ccc(Cl)cc1Cl)n1cncn1 | 148 | – | – | – | – | – | – | – |
| O=C(O)c1cccc(O)c1O | 204 | – | – | – | – | – | – | – |
| CC(=O)OC(C)(C)C | – | 97 | 1.67 | – | – | – | – | – |
| CCCCOc1ccccc1OCCCC | – | – | – | – | – | not readily biodegradable | – | – |

| Structure (SMILES) | melting point [°C] | boiling point [°C] | log10 vapour pressure (mmHg) | log10 Koc (L/kg) | log10 biodegradation half-life (days) | ready biodegradability | log10 Henry constant (atm·m³/mol) | log10 Koa |
| --- | --- | --- | --- | --- | --- | --- | --- | --- |
| C=C(C)CCCCCC | -77.8 | 145 | – | – | – | – | – | – |
| C[C@]12C=CC(=O)C=C1CC[C@@H]1[C@@H]2[C@@H](O)C[C@@]2(C)[C@H]1CC[C@]2(O)C(=O)COC(=O)CCCc1ccc(N(CCCl)CCCl)cc1 | 164 | – | – | – | – | – | – | – |
| Cc1cccc(CN)c1 | – | 204 | – | – | – | – | – | – |
| Cc1ccc(OCC(=O)O)cc1 | 141 | – | – | – | – | – | – | – |
| CCCCCCCC(C)CC (centres undefined) | -92.9 | 188 | – | – | – | – | – | – |
| COC1=C[C@@H](C)[C@@H]2C[C@H]3OC(=O)C[C@H]4C(C)=C(OC)C(=O)[C@H]([C@@]2(C)C1=O)[C@@]34C | 222 | – | – | – | – | – | – | – |
| Oc1cccc2[nH]ccc12 | 100 | – | – | – | – | – | – | – |
| CC(=O)c1cccc(N)c1 | 98.5 | 290 | – | – | – | – | – | – |
| Fc1c(F)c(F)c(Br)c(Br)c1F | 12 | 198 | – | – | – | – | – | – |
| CCCCOC(=O)CC(CC(=O)OCCCC)(OC(C)=O)C(=O)OCCCC | -80 | – | – | – | – | readily biodegradable | – | – |
| CC[N+](C)(C)CCOC(=O)C(O)(c1ccccc1)c1ccccc1.[Cl-] | 213 | – | – | – | – | – | – | – |
| CCCc1ccc2c(c1)OCO2 | – | 228 | – | – | – | – | – | – |
| Cc1c(N)cccc1[N+](=O)[O-] | 92 | 305 | – | – | – | – | – | – |
| OCCOc1ccc2ccccc2c1 | 76.7 | – | – | – | – | – | – | – |
| CCOC(=O)C1(C(=O)OCC)CC1 | – | 216 | – | – | – | – | – | – |
| NCCCC(N)C(=O)O (centres undefined) | 140 | – | – | – | – | – | – | – |
| OCc1cccc2ccccc12 | 64 | 304 | – | 2.17 | – | – | – | – |
| C=C(Cl)CCl | – | 94 | 1.79 | – | – | – | – | – |
| CCCCCCN1CCCC1=O | 4 | – | – | – | – | – | – | – |
| N#Cc1c[nH]cc1-c1cccc(Cl)c1Cl | 147 | – | -7.08 | – | – | – | – | – |
| ClC=C(Cl)C(Cl)=CCl | -4 | 188 | – | – | – | – | – | – |

| Structure (SMILES) | melting point [°C] | boiling point [°C] | log10 vapour pressure (mmHg) | log10 Koc (L/kg) | log10 biodegradation half-life (days) | ready biodegradability | log10 Henry constant (atm·m³/mol) | log10 Koa |
| --- | --- | --- | --- | --- | --- | --- | --- | --- |
| COc1cc(-c2ccc(N=C=O)c(OC)c2)ccc1N=C=O | 114 | – | – | – | – | – | – | – |
| C[Si](C)(C)CO | – | 121 | – | – | – | – | – | – |
| Cc1ccc2cc3c(ccc4ccccc43)cc2c1 | 152 | – | – | – | – | – | – | – |
| Clc1cccc(-c2ccccc2)c1Cl | – | – | – | – | – | – | -3.64 | – |
| C/C=C/C#N | -51.5 | – | – | – | – | – | – | – |
| Clc1ccc(Cl)c(-c2cc(Cl)c(Cl)c(Cl)c2)c1 | 105 | – | – | – | – | – | – | – |
| CC(C)(C)c1cc(N=Nc2ccccc2[N+](=O)[O-])c(O)c(C(C)(C)C)c1 | – | – | – | – | – | not readily biodegradable | – | – |
| CC1=NNC(=O)C1 | 221 | – | – | – | – | – | – | – |
| CCOP(=S)(OCC)OC(Cl)C(Cl)(Cl)Cl (centres undefined) | – | – | -3.1 | 3.6 | – | – | – | – |
| CCC(CC)COC(=O)CCCCC(=O)OCC(CC)CC | -15 | – | – | – | – | – | – | – |
| COc1cccc(C=O)c1 | – | 231 | – | – | – | readily biodegradable | – | – |
| C=C1CC[C@H](O)C/C1=C/C=C1\CCC[C@]2(C)[C@@H]([C@H](C)/C=C/[C@H](C)C(C)C)CC[C@@H]12 | 116 | – | – | – | – | – | – | – |
| COC(=O)c1ccc2cc(C(=O)OC)ccc2c1 | – | – | – | – | – | not readily biodegradable | – | – |
| COc1ccc(S)cc1 | – | 228 | – | – | – | – | – | – |
| Clc1c(Cl)c(Cl)c2ccccc2c1Cl | 198 | – | -5.54 | – | – | – | – | 8.3 |
| ClCc1ccccc1 | -45 | 179 | 0.0899 | – | – | readily biodegradable | – | – |
| CC(=O)OCCN(CCC#N)c1ccc(N=Nc2nc3ccc([N+](=O)[O-])cc3s2)cc1 | 167 | – | – | – | – | – | – | – |
| O=C(O)c1cc[n+]([O-])cc1 | 270 | – | – | – | – | – | – | – |
| O[C@@H]1CCCC[C@H]1Cl | 29 | – | – | – | – | – | – | – |
| c1ccc2c(c1)cc1ccc3cccc4c5ccccc5c2c1c34 | 162 | – | – | – | – | – | – | – |
| Cc1ccccc1B(O)O | 166 | – | – | – | – | – | – | – |

same assay, conditions: fish

| Structure (SMILES) | log10 BCF | log10 biotransformation half-life (days) |
| --- | --- | --- |
| c1ccc2sc(SSc3nc4ccccc4s3)nc2c1 | 1.42 | -0.91 |
| Nc1ccc2ccccc2c1S(=O)(=O)O | 0.78 | – |
| CCCCCc1ccc2c(c1)C(=O)c1ccccc1C2=O | 2.94 | 0.2 |
| O=C(O)c1cccc([N+](=O)[O-])c1 | 0.85 | – |
| Cc1cc(O)ccc1Cl | 0.93 | -1.28 |
| c1ccc(COCc2ccccc2)cc1 | 2.43 | 0.63 |
| Clc1ccc2ccccc2c1 | 3.63 | – |
| Clc1cccc(-c2ccccc2)c1Cl | 3.98 | 2.15 |
| Clc1c(Cl)c(Cl)c2ccccc2c1Cl | 3.7 | 1.2 |
